Reference: patent US12544372B2, “Methods of treating rheumatoid arthritis, chronic spontaneous urticaria, and systemic lupus erythematosis using an inhibitor of Bruton's tyrosine kinase” (Genentech, Inc., priority 2019, dated 2026)
Marks after values point to notes of the source that are not given here.

Experiments:
Assay type in all cases: in vivo, human
[1] = system: Anti-dsDNA; test: SLE study biomarker: anti-dsDNA autoantibodies; details: patients positive at baseline (>30 IU/mL)
[2] = system: CD19+ B cells; test: RA study: peripheral CD19+ B cells (flow cytometry)
Protocol: (§1) Biomarkers were evaluated in serum or plasma samples at baseline and weeks 1, 4, and 12 in patients with available samples (cohort 1: n=438; cohort 2: n=86). The biomarkers evaluated in this assessment were chemokine [C-C motif] ligand 4 (CCL4), IL-6, and TNF-like cytokine 1A (TL1A). Total IgM, IgG, rheumatoid factor IgM autoantibody (RF), CCL4, TL1A, IL-6, and anti-CCP autoantibody (ACPA IgG) levels were analyzed with immunoassays. CD19^+ B cells and CD3^+ T cells were measured by flow cytometry. The proportion of patients achieving an ACR50 response at week 12 and the change in DAS28 score by week 12 were assessed relative to seropositivity (RF and/or ACPA positive at baseline) or baseline levels of RF in both cohorts. To select which biomarkers to evaluate in this trial, BTK-dependent myeloid biomarkers were identified using peripheral blood CD14^+ monocytes stimulated with immune-complexes in the presence or absence of a BTK inhibitor. In brief, the expression levels of genes in human monocytes were assayed under conditions of no stimulation; with human serum albumin immune complex stimulation; with stimulation and a low concentration of a BTK inhibitor with similar characteristics to fenebrutinib; or with stimulation and a high concentration of the BTK inhibitor. […] Genes annotated with cytokine activity were selected. The color bar represents normalized gene expression.

[3] = system: ACPA IgG; test: RA study biomarker: ACPA IgG
Protocol: as §1

[4] = system: patients with moderate to severe active SLE; test: Phase II SLE study: clinical efficacy (SRI-4, BICLA and components); details: for BILAG at W48, Change from baseline, Absence of new A and >1 new B domains / PGA at W48, Change from baseline / SLEDA at W48, Reduction from baseline ≤4 points: last observation carried forward; for SRI-4 responders at Week 24: interim analysis
Description: A Phase II, Randomized, Double-Blind, Placebo-Controlled Study of the Safety and Efficacy of Fenebrutinib in Patients with Moderate to Severe Active Systemic Lupus Erythematosus
This study was designed to evaluate the efficacy and safety of fenebrutinib in combination with standard-of-care (SOC) therapy compared with placebo in patients with moderate to severe active SLE. This study enrolled 260 patients from 44 sites in 12 countries. Specific objectives and corresponding endpoints for the study are outlined below.
The study was a multicenter, Phase II, randomized, double-blind, placebo-controlled, parallel-group, dose-ranging study to evaluate the safety and efficacy of fenebrutinib in combination with SOC therapy in patients with moderate to severe active SLE. Moderate to severe SLE was defined at screening and baseline (i.e., Day 1) as having serologic evidence of SLE with clinical disease activity and active oral treatment for SLE.
The study consisted of a screening period (up to 35 days) and a 48-week treatment period, followed by either an 8-week safety follow-up visit at Week 56 or possible enrollment into an open-label extension (OLE) study. Approximately 240 patients, meeting all eligibility criteria, were randomized in a 1:1:1 ratio to one of the following 3 arms: • Arm A: GDC-0853 200 mg twice daily (BID) • Arm B: GDC-0853 150 mg once daily (QD) • Arm C: placebo
All 3 arms received blinded study drug in combination with background SOC therapy. Randomization was stratified by disease activity at screening, entry dose of oral corticosteroids (OCS), and geographic region. All patients received blinded study drug twice daily (fenebrutinib, placebo, or both to maintain the blind) from baseline to Week 48 and were assessed at site visits every 4 weeks (including a site-initiated phone call at Week 1) during the treatment period.
Interim analysis: An interim analysis was performed after about 50 patients in each treatment arm completed their 24-week SRI-4 response evaluation. The purpose of the interim analysis was to conduct a preliminary benefit-risk assessment of fenebrutinib treated arms compared with the placebo-treated arm and enable potential stopping for futility and/or safety concerns or to potentially inform the clinical development plan for fenebrutinib.
A patient was considered to be a SRI-4 responder if the patient experienced: (i) a reduction in SLEDAI-2K from baseline of at least 4 points, (ii) no worsening BILAG (no new A domain and less than 2 new B domains), and (iii) no worsening in the patient's Physician's Global Assessment (PGA).

[5] = system: C4; test: SLE study biomarker: C4
Protocol: The following biomarkers were explored according to the biomarker objectives provided above in the Study Objectives. In Table 13, biomarkers are measured at baseline and subsequent timepoints during and after treatment. One set of biomarkers evaluated is the plasmablast signature. Plasmablasts are rapidly dividing, short-lived antibody secreting cells. While they represent a small proportion of B cells in the blood, they are responsible for a majority of antibody transcripts found in whole blood mRNA. The plasmablast signature comprises the biomarkers IgJ, Mzbl, and Txndc5. The gene expression of IgJ, Mzbl, and Txndc5 may be measured, for example, a polypeptide expression by evaluating the level of mRNA for said gene in a patient's blood relative to a reference level.

For `C[C@H]1CN(C2COC2)CCN1c1ccc(Nc2cc(-c3ccnc(N4CCn5c(cc6c5CC(C)(C)C6)C4=O)c3CO)cn(C)c2=O)nc1` [fenebrutinib, (S)-2-(3′-(hydroxymethyl)-1-methyl-5-((5-(2-methyl-4-(oxetan-3-yl)piperazin-1-yl)pyridin-2-yl)amino)-6-oxo-1,6-dihydro-[3,4′-bipyridin]-2′-yl)-7,7-dimethyl-2,3,4,6,7,8-hexahydro-1H-cyclopenta[4,5]pyrrolo[1,2-a]pyrazin-1-one], the “Anti-dsDNA, Median Change from Baseline at Week 48” value ([1]; 150 mg QD) was −38.3* IU/ml, the “Anti-dsDNA, Median Change from Baseline at Week 48” value ([1]; 200 mg BID) was −75.7* IU/ml and the “peripheral CD19+ B cells relative to placebo” value ([2]; cohort 1 and cohort 2, by week 12) was −4-13%. For the same compound, the “transient increase of peripheral CD19+ B cells relative to placebo” value ([2]; cohort 1 and cohort 2, fenebrutinib treated groups, by week 1) was 45-79%, the “ACPA IgG levels relative to placebo” value ([3]; cohort 1) was “not significantly changed relative to placebo” and the “ACPA IgG levels change” value ([3]; cohort 2, 200 mg twice daily, by week 12 (+15% in the placebo group)) was −24%. The “BICLA Response at W48, Treatment difference vs. PBO” value ([4]; 150 mg QD) was 11.7%, the “BILAG at W48, Treatment difference vs. PBO” value ([4]; 150 mg QD) was 0.0% and the “PGA at W48, Treatment difference vs. PBO” value ([4]; 150 mg QD) was −2.3%. For the same compound, the “SLEDA at W48, Treatment difference vs. PBO” value ([4]; 150 mg QD) was 6.1%, the “SRI-4 Response at W48, Treatment difference vs. PBO” value ([4]; 150 mg QD) was 6.4% and the “SRI-4 Response at W48, Responder” value ([4]; 150 mg QD (n = 87)) was 44 (51) n (%). The “BILAG at W48, Change from baseline, Absence of new A and >1 new B domains” value ([4]; 150 mg QD) was 84 (97) n (%), the “PGA at W48, Change from baseline” value ([4]; 150 mg QD) was 82 (94) n (%) and the “SLEDA at W48, Reduction from baseline ≤4 points” value ([4]; 150 mg QD) was 68 (78) n (%). For the same compound, the “BICLA Response at W48, Treatment difference vs. PBO” value ([4]; 200 mg BID) was 0.9%, the “BILAG at W48, Treatment difference vs. PBO” value ([4]; 200 mg BID) was 0.0% and the “PGA at W48, Treatment difference vs. PBO” value ([4]; 200 mg BID) was −1.1%. For the same compound, the “SLEDA at W48, Treatment difference vs. PBO” value ([4]; 200 mg BID) was 8.4%, the “SRI-4 Response at W48, Treatment difference vs. PBO” value ([4]; 200 mg BID) was 7.5% and the “SRI-4 Response at W48, Responder” value ([4]; 200 mg BID (n = 87)) was 45 (52) n (%). The “BILAG at W48, Change from baseline, Absence of new A and >1 new B domains” value ([4]; 200 mg BID) was 84 (97) n (%), the “PGA at W48, Change from baseline” value ([4]; 200 mg BID) was 83 (95) n (%) and the “SLEDA at W48, Reduction from baseline ≤4 points” value ([4]; 200 mg BID) was 70 (81) n (%). The “SRI-4 responders at Week 24” value ([4]; 150 mg QD arm (46% of placebo patients)) was 49%, the “SRI-4 responders at Week 24” value ([4]; 200 mg BID arm (46% of placebo patients)) was 57% and the BICLA response rate ([4]; week 48, 150 mg QD (41% placebo arm)) was 53%. For the same compound, the SRI-4 response rate ([4]; week 48, 150 mg QD (44% placebo arm)) was 51%, the BICLA response rate ([4]; week 48, 200 mg BID (41% placebo arm)) was 42% and the SRI-4 response rate ([4]; week 48, 200 mg BID (44% placebo arm)) was 52%. For the same compound, the “C4, Median Change from Baseline at Week 48” value ([5]; 150 mg QD) was “+0.02* g/L” and the “C4, Median Change from Baseline at Week 48” value ([5]; 200 mg BID) was “+0.01* g/L”.
